Source: patent US8030478B2, “Method for nucleic acid replication and novel artificial base pairs” (priority 2005, dated 2011)
Like-named read-outs stand apart in the source and are kept apart here.

What was measured:
[1] = molecular target: Klenow fragment lacking 3′-5′ exonuclease activity (Escherichia coli, UniProt P00582, D355A/E357A); conditions: template DNA (55-mer) containing Ds, 10 μM substrate, 37° C., 5 minutes; FIG. 48
Description: More specifically, experimental procedures as shown below were used. […] The reaction was performed using 200 nM Template-Primer, 100 μM or 200 μM dNTPs (N=A, G, C, T), 10 μM NH2-hx-dPnTP or FAM-hx-dPnTP, and 0.1 U/μl Klenow fragment (GE Health Care) in 50 mM Tris-HCl (pH 7.5), 10 mM MgCl2, 1 mM DTT, 0.05 mg/ml BSA. After reaction at 37° C. for 5 minutes, 10 M urea (20 μl) was added to this solution to stop the reaction. […] Bands of the reaction products were detected with a fluorescence image analyzer (Molecular Imager, Bio-Rad, FAM detection mode).

[2] = molecular target: T1, T7 RNA polymerase (Escherichia phage T7, UniProt P00573); conditions: 1 mM substrate, 1 mM NTPs, template DNA containing Ds, 37° C., 3 hours; FIG. 49
T1 sequence (P00573 whole entry): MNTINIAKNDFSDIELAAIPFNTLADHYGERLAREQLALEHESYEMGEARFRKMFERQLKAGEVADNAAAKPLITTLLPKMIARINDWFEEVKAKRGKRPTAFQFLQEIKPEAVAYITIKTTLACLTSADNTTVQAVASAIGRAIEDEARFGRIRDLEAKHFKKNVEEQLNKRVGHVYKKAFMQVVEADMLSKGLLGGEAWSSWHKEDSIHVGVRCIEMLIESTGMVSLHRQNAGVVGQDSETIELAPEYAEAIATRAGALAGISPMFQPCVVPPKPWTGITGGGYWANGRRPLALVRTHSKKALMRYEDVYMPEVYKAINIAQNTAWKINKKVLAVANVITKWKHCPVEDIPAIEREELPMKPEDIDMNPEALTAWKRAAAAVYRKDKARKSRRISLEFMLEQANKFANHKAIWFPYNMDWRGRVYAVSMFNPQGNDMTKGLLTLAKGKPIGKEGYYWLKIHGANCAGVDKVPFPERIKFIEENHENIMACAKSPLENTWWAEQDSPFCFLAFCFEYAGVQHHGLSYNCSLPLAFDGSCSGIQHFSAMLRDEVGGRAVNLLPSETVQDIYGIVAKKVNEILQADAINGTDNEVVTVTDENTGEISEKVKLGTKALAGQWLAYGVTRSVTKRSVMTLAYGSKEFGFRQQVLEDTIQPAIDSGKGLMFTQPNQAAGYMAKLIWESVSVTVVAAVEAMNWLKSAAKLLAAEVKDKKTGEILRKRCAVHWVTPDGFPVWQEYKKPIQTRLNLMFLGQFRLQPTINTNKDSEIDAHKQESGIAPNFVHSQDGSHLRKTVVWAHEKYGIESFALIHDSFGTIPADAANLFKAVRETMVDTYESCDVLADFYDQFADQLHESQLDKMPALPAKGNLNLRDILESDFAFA
Description: More specifically, experimental procedures as shown below were used. […] After reaction at 37° C. for 3 hours, 10 M urea (20 μL) was added to this solution to stop the reaction.

[3] = tested on: Klenow fragment (KF exo+ / KF exo−); conditions: FIG. 2e; for primer extension after incorporation of the substrate: dDsTPN opposite template Pa, dATPN opposite template T, Lanes 2 and 14
Description: (§1) [FIG. 2d] FIGS. 2a to 2e show single nucleotide insertion and primer extension experiments with an unnatural base pair system based on Ds-Pa base pairing.
(§2) [FIG. 2e] FIGS. 2a to 2e show single nucleotide insertion and primer extension experiments with an unnatural base pair system based on Ds-Pa base pairing.
(§3) A 5′-^32P-labeled primer (23-mer) and template DNA (35-mer) were annealed into duplex form in 20 mM Tris-HCl (pH 7.5) buffer containing 14 mM MgCl2 and 0.2 mM DTT. The duplex solution (400 nM, 5 μl) was mixed with each 5× dNTP solution (2 μl) on ice, followed by addition of 3 μl enzyme solution containing KF exo^− (1 unit) or KF exo^+ (1 unit) (TAKARA) to start the reaction. After the reaction solution was incubated at 37° C. for 3 or 5 minutes, a dye solution (10 μl) containing 89 mM Tris-borate, 2 mM EDTA, 10 M urea and 0.05% BPB was added to stop the reaction. […] The products on the gel were analyzed with a bio-imaging analyzer (model BAS2500, Fuji).

[4] = molecular target: Klenow fragment (KF exo+ / KF exo−) (Escherichia coli, UniProt P00582); conditions: dPaTP and natural substrates in the presence of the named substrate (0.5 or 1 molar equivalent of dPaTP); FIG. 2d
Klenow fragment (KF exo+ / KF exo−) (Escherichia coli, UniProt P00582), sequence (P00582 324-928): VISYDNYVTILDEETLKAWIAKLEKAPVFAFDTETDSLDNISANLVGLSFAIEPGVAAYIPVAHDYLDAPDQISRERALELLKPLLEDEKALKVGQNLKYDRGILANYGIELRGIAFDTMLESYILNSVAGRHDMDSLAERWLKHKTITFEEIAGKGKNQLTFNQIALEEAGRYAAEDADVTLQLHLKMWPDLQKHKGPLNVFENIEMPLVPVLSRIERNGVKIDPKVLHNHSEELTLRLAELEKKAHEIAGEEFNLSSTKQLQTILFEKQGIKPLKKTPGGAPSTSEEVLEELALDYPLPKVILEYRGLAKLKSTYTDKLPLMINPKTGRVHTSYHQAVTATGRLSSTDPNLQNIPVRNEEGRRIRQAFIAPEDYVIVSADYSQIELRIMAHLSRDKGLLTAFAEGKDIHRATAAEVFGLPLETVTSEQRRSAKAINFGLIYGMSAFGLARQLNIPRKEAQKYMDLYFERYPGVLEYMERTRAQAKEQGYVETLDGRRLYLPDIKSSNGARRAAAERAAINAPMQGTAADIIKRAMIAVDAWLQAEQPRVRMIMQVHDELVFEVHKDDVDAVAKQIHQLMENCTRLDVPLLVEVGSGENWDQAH
Description: as §1, §2, §3

[5] = molecular target: T2, Klenow fragment lacking exonuclease activity (KF exo−) (Escherichia coli, UniProt P00582, D355A/E357A); format: biochemical, E. coli; conditions: for Efficiency (Vmax/KM) / Km / Vmax: 37° C.
T2 construct: enzyme solution of the Klenow fragment lacking exonuclease activity (KF exo^−, Amersham USB); purchased Amersham USB
T2 sequence (P00582 324-928 D355A/E357A): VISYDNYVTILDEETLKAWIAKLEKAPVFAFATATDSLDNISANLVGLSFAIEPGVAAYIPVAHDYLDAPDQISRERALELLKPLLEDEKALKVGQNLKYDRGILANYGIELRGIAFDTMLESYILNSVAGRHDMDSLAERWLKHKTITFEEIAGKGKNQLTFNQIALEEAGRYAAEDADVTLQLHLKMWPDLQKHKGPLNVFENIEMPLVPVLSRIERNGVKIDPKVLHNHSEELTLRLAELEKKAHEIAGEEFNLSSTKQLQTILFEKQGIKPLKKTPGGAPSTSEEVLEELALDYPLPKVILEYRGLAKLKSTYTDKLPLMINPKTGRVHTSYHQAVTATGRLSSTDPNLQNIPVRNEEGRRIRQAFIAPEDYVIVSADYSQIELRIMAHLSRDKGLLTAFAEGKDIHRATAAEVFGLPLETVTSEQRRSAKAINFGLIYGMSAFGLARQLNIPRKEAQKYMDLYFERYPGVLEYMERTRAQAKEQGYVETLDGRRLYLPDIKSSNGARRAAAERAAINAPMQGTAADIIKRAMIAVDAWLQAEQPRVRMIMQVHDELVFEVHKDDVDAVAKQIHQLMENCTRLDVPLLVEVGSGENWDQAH
Description: The single nucleotide insertion experiment was performed as described in documents (Non-patent Documents 30-32). A primer (20-mer) labeled with 6-carboxylfluorescein at the 5′-end was annealed with template DNA (35-mer) by heating at 95° C. and slow cooling to 4° C. in 100 mM Tris-HCl (pH 7.5) buffer containing 20 mM MgCl2, 2 mM DTT and 0.1 mg/ml bovine serum albumin. The primer-template duplex solution (10 μM, 5 μl) was mixed with 2 μl enzyme solution of the Klenow fragment lacking exonuclease activity (KF exo^−, Amersham USB). After the mixture was incubated for 2 minutes, each dNTP solution (3 μl) was added to this solution to start the reaction at 37° C. The amount of the enzyme used (5-50 nM), the reaction time (1-35 minutes) and the gradient concentration of each dNTP (0.3-1500 μM) were adjusted to ensure conditions giving 25% or less products. The reaction was stopped with 10 μl stop solution (95% formamide and 20 mM EDTA), and the mixture was immediately heated at 75° C. for 3 minutes. The diluted products were analyzed in an automated ABI377 DNA sequencer equipped with GeneScan software (version 3.0) (Non-patent Document 32). The relative velocity (v0) was calculated by dividing the extent of reaction by the reaction time, and then normalized to the enzyme concentration (20 nM) for the various enzyme concentrations used. Kinetic parameters (KM and Vmax) were obtained from Hanes-Woolf plots of [dNTP]/v0 against [dNTP].
Each parameter was averaged from 3 to 8 data sets.

[6] = molecular target: T1, T7 RNA polymerase; conditions: for transcripts biotinylated (incorporation rate): DNA6 template obtained by ligation; for misincorporation opposite natural bases, yield of biotinylated transcripts / misincorporation per base position in the 152-mer transcripts: DNAcont2 template
Description: 152-mer RNAs transcribed with Bio-PaTP from DNA6 template obtained by ligation and DNAcont2 template obtained by PCR amplification (20 cycles), as well as 152-mer RNAs transcribed with biotinylated UTP (Bio-UTP) from DNAcont5 and DNAcont6 templates obtained by ligation were mixed with streptavidin. Biotinylated RNA-streptavidin complexes were separated from free RNAs on a 7% polyacrylamide-7 M urea gel, and the percentages (yields) of the complexes were determined from their band intensity.
Transcription (20 μl) was performed for 6 hours at 37° C. using 3 μCi [γ-^32P]GTP, 2 mM each natural NTP, 0-4 mM Bio-PaTP (biotinylated Pa substrate: chemically synthesized as shown in Example IV), and 30 nM template (DNA6 and DNAcont2 (see FIG. 6), obtained by both ligation and PCR amplification).
For control reactions using DNAcont5 and DNAcont6 obtained by ligation (see FIG. 6), transcription was performed only with 2 mM ATP, GTP and CTP in the presence or absence of 2 mM Bio-UTP (biotin-16-uridine-5′-triphosphate, Roche Applied Science). The products were analyzed and purified on a 7-10% polyacrylamide-7 M urea gel.
The biotinylated RNA transcripts were detected by gel shift assay using streptavidin. A mixture (10 μl) of 2 pmol ^32P-labeled transcript and 100 pmol streptavidin (Promega) was incubated at 20° C. for 1 hour in 10 mM Tris-HCl buffer (pH 7.6) containing 50 mM NaCl and 10 mM EDTA. The biotinylated RNA-streptavidin complexes were analyzed by electrophoresis on a 7% polyacrylamide-7 M urea gel. To determine the position where Bio-Pa was introduced, each RNA (152-mer) was labeled with [γ-^32P]ATP (Perkin Elmer) after 5′-dephosphorylation with calf intestinal alkaline phosphatase (Takara). The labeled RNA was partially digested with RNase T1 at 55° C. for 12 minutes in 13.3 mM sodium citrate buffer (pH 5.0) containing 4.7 M urea, 0.7 mM EDTA and 0.17 mg/ml E. coli tRNA, or with alkali at 90° C. for 15 minutes in 32 mM sodium carbonate buffer (pH 9.1) containing 0.6 mM EDTA. The alkali-digested RNA solution (9 μl) was mixed with 11 μl of 20 mM Tris-HCl buffer (pH 7.6) containing 150 mM NaCl, and the mixture (10 μl) was then incubated with streptavidin magnetic beads (0.4 mg) (New England BioLabs) for 5 minutes at room temperature to capture the biotinylated RNA. An aliquot (5 μl) of the supernatant was analyzed together with other digested samples on a 10% polyacrylamide-7 M urea gel.

Klenow fragment lacking 3′-5′ exonuclease activity, sequence (P00582 324-928 D355A/E357A): as above

| Compound | Efficiency (Vmax/KM) ([5]; template (N) = C, temp35N-2) | Km ([5]; template (N) = C, temp35N-2) | Vmax ([5]; template (N) = C, temp35N-2) | Efficiency (Vmax/KM) ([5]; template (N) = Ds, temp35N-1) | Km ([5]; template (N) = Ds, temp35N-1) | Vmax ([5]; template (N) = Ds, temp35N-1) | Efficiency (Vmax/KM) ([5]; template (N) = Pa, temp35N-2) | Km ([5]; template (N) = Pa, temp35N-2) | Vmax ([5]; template (N) = Pa, temp35N-2) | Efficiency (Vmax/KM) ([5]; template (N) = Pa′, temp35N-2) | Km ([5]; template (N) = Pa′, temp35N-2) | Vmax ([5]; template (N) = Pa′, temp35N-2) | Efficiency (Vmax/KM) ([5]; template (N) = T, temp35N-2) | Km ([5]; template (N) = T, temp35N-2) | Vmax ([5]; template (N) = T, temp35N-2) | other results |
| --- | --- | --- | --- | --- | --- | --- | --- | --- | --- | --- | --- | --- | --- | --- | --- | --- |
| NCCCCCC(=O)NCC#Cc1cc([N+](=O)[O-])n([C@H]2C[C@H](O)[C@@H](COP(=O)(O)OP(=O)(O)OP(=O)(O)O)O2)c1 [NH2-hx-dPnTP] | – | – | – | – | – | – | – | – | – | – | – | – | – | – | – | incorporation into DNA through primer extension [1]: incorporated into DNA opposite Ds in the template DNA |
| CN(C)c1ccc2c(c1)Oc1cc(N(C)C)ccc1C21OC(=O)c2cc(C(=O)NCCCCCC(=O)NCC#Cc3cc(C=O)n([C@@H]4O[C@H](COP(=O)(O)OP(=O)(O)OP(=O)(O)O)[C@@H](O)[C@H]4O)c3)ccc21 [TAMRA-hx-PaTP, 1-(β-D-Ribofuranosyl)-4-[3-(6-(tetramethylrhodamine-5-carboxamido)hexanamido)-1-propynyl]pyrrole-2-carbaldehyde 5′-triphosphate] | – | – | – | – | – | – | – | – | – | – | – | – | – | – | – | transcription efficiency compared to control with natural substrates alone [2]: 10% |
| NP(=O)(O)OP(=O)(O)OP(=O)(O)OC[C@H]1O[C@@H](n2cnc3c(-c4cccs4)ccnc32)C[C@@H]1O [dDsTPN, 7-(2-Thienyl)-3-(2-deoxy-β-D-ribofuranosyl)-3H-imidazo[4,5-b]pyridine 5′-γ-amidotriphosphate] | 1.5 × 10^3 % min^−1M^−1 | 440 µM | 0.64 % min^−1 | 9.9 × 10^3 % min^−1M^−1 | 79 µM | 0.78 % min^−1 | 6.7 × 10^4 % min^−1M^−1 | 180 µM | 12 % min^−1 | 5.7 × 10^4 % min^−1M^−1 | 230 µM | 13 % min^−1 | 3.5 × 10^3 % min^−1M^−1 | 480 µM | 1.7 % min^−1 | primer extension after incorporation of the substrate [3]: proceeded efficiently; primer extension with KF exo+ on Ds-containing template [4]: proceeded without being inhibited; incorporation efficiency opposite template Pa relative to that of dATPN opposite template Pa ([5]; KF exo−, template Pa): 37 fold; Efficiency (Vmax/KM) ([5]; template (N) = A, temp35N-2): 1.9 × 10^3 % min^−1M^−1; Km ([5]; template (N) = A, temp35N-2): 270 µM; Vmax ([5]; template (N) = A, temp35N-2): 0.52 % min^−1; Efficiency (Vmax/KM) ([5]; template (N) = G, temp35N-2): 1.9 × 10^3 % min^−1M^−1; Km ([5]; template (N) = G, temp35N-2): 300 µM; Vmax ([5]; template (N) = G, temp35N-2): 0.58 % min^−1 |
| O=Cc1cc(C#CCNC(=O)CCCCCNC(=O)c2ccc3c(c2)C(=O)OC32c3ccc(O)cc3Oc3cc(O)ccc32)cn1[C@@H]1O[C@H](COP(=O)(O)OP(=O)(O)OP(=O)(O)O)[C@@H](O)[C@H]1O [FAM-hx-PaTP, 1-(β-D-Ribofuranosyl)-4-[3-(6-(fluorescein-5-carboxamido)hexanamido)-1-propynyl]pyrrole-2-carbaldehyde 5′-triphosphate] | – | – | – | – | – | – | – | – | – | – | – | – | – | – | – | transcription efficiency compared to control with natural substrates alone [2]: 14% |
| O=C(CCCCCNC(=O)c1ccc2c(c1)C(=O)OC21c2ccc(O)cc2Oc2cc(O)ccc21)NCC#Cc1cc([N+](=O)[O-])n([C@H]2C[C@H](O)[C@@H](COP(=O)(O)OP(=O)(O)OP(=O)(O)O)O2)c1 [FAM-hx-dPnTP, 1-(2-Deoxy-β-D-ribofuranosyl)-4-[3-[6-(fluorescein-5-carboxamido)hexanamido]-1-propynyl]-2-nitropyrrole 5′-triphosphate] | – | – | – | – | – | – | – | – | – | – | – | – | – | – | – | incorporation into DNA through primer extension [1]: incorporated into DNA opposite Ds in the template DNA |
| O=Cc1cc(C#CCNC(=O)CCCC[C@@H]2SC[C@@H]3NC(=O)N[C@@H]32)cn1[C@@H]1O[C@H](COP(=O)(O)OP(=O)(O)OP(=O)(O)O)[C@@H](O)[C@H]1O [Bio-PaTP, 1-(β-D-ribofuranosyl)-4-[(3-biotinamido-1-propynyl)]pyrrole-2-carbaldehyde 5′-triphosphate] | – | – | – | – | – | – | – | – | – | – | – | – | – | – | – | transcripts biotinylated (incorporation rate) ([6]; 2 mM Bio-PaTP): 90%; transcripts biotinylated (incorporation rate) ([6]; 4 mM Bio-PaTP): 96%; misincorporation opposite natural bases, yield of biotinylated transcripts ([6]; 2 mM Bio-PaTP): 9%; misincorporation per base position in the 152-mer transcripts ([6]; 2 mM Bio-PaTP): 0.06%; misincorporation opposite natural bases, yield of biotinylated transcripts ([6]; 4 mM Bio-PaTP): 16%; misincorporation per base position in the 152-mer transcripts ([6]; 4 mM Bio-PaTP): 0.12%; reduction of incorporation rate with template obtained by PCR amplification ([6]; template from PCR (20 cycles), FIG. 44d, Lanes 9 and 11): 3-4% |
| O=P(O)(O)OP(=O)(O)OP(=O)(O)OC[C@H]1O[C@@H](n2cnc3c(-c4cccs4)ccnc32)C[C@@H]1O [dDsTP, 7-(2-Thienyl)-3-(2-deoxy-β-ribofuranosyl)-3H-imidazo[4,5-b]pyridine 5′-triphosphate] | 2.8 × 10^4 % min^−1M^−1 | 47 µM | 1.3 % min^−1 | 2.0 × 10^5 % min^−1M^−1 | 8 µM | 1.6 % min^−1 | 1.1 × 10^4 % min^−1M^−1 | 26 µM | 28 % min^−1 | 8.8 × 10^5 % min^−1M^−1 | 24 µM | 21 % min^−1 | 8.7 × 10^4 % min^−1M^−1 | 45 µM | 3.9 % min^−1 | primer extension with KF exo+ on Ds-containing template [4]: inhibited; Efficiency (Vmax/KM) ([5]; template (N) = A, temp35N-2): 3.6 × 10^4 % min^−1M^−1; Km ([5]; template (N) = A, temp35N-2): 33 µM; Vmax ([5]; template (N) = A, temp35N-2): 1.2 % min^−1; Efficiency (Vmax/KM) ([5]; template (N) = G, temp35N-2): 4.1 × 10^4 % min^−1M^−1; Km ([5]; template (N) = G, temp35N-2): 37 µM; Vmax ([5]; template (N) = G, temp35N-2): 1.5 % min^−1 |
| biotin-16-uridine-5′-triphosphate [Bio-UTP, reference compound] | – | – | – | – | – | – | – | – | – | – | – | – | – | – | – | biotinylation of transcripts by incorporation opposite A ([6]; DNAcont5 template, 2 mM Bio-UTP, 2 mM ATP, GTP and CTP): completely biotinylated; transcripts biotinylated by misincorporation opposite bases G, C and T ([6]; DNAcont6 template, 2 mM Bio-UTP, 2 mM ATP, GTP and CTP): 21% |
| Nc1ncnc2c1ncn2[C@H]1C[C@H](O)[C@@H](COP(=O)(O)OP(=O)(O)OP(N)(=O)O)O1 [dATPN, 6-Amino-9-(2-deoxy-β-D-ribofuranosyl)purine 5′-γ-amidotriphosphate] | 3.4 × 10^2 % min^−1M^−1 | 590 µM | 0.20 % min^−1 | 3.2 × 10^2 % min^−1M^−1 | 150 µM | 0.048 % min^−1 | 1.8 × 10^3 % min^−1M^−1 | 1200 µM | 2.2 % min^−1 | 3.0 × 10^3 % min^−1M^−1 | 800 µM | 2.4 % min^−1 | 2.5 × 10^5 % min^−1M^−1 | 13 µM | 3.2 % min^−1 | extension reaction after misincorporation opposite template Pa, compared to dATP ([3]; Lanes 4 and 5): significantly reduced efficiency; primer extension after incorporation of the substrate [3]: proceeded efficiently |
